Assays:
[1] = tested on: cloned mammalian (mSIo or hSIo) BK channels; test: Increase of cloned BK-mediated outward current in Xenopus oocytes, two-electrode voltage clamp; type: cell-based; conditions: at 20 μM; at least 5 oocytes; mSIo or hSIo expressed in Xenopus oocytes
Protocol: The ability of compounds described in the present invention to open BK channels and increase whole-cell outward (K^+) BK-mediated currents was assessed under voltage-clamp conditions by determining their ability to increase cloned mammalian (mSIo or hSIo) BK--mediated outward current heterologously expressed in Xenopus oocytes [Butler, A., et al., Science, 261:221-224 (1993); and Dworetzky, S. I., etal., Mol. Brain Res., 27: 189-193 (1994)]. The two BK constructs employed represent nearly structurally identical homologous proteins, and have proven to be pharmacologically identical in our tests. To isolate BK current from native (background, non-BK) current, the specific and potent BK channel-blocking toxin iberiotoxin (IBTX) [Galvez, A., et al., J. Biol. Chem. 265:11083-11090 (1990)] was employed at a supramaximal concentration (50 nM). The relative contribution of BK channels current to total outward current was determined by subtraction of the current remaining in the presence of IBTX (non-BK current) from the current profiles obtained in all other experimental conditions (control, drug, and wash). […] All compounds were tested in at least 5 oocytes and are reported at the single concentration of 20 uM; the effect of the selected compounds of Formula I on BK current was expressed as the percent of control IBTX-sensitive current and is listed in Table I. Recordings were accomplished using standard two-electrode voltage clamp techniques [Stuhmer, W., et al., Methods in Enzymology, Vol. 207:319-339 (1992)]; voltage-clamp protocols consisted of 500-750 ms duration step depolarizations from a holding potential of -60 mV to +140 mV in 20 mV steps. The experimental media (modified Barth's solution) consisted of (in mM): NaCl (88), NaHCO3 (2.4), KCl (1.0), HEPES (10), MgSO4 (0.82), Ca(NO3)2 (0.33), CaCl2 (0.41); pH 7.5.

[2] = tested on: cortical infarct volume after MCAO; test: Permanent middle cerebral artery occlusion (MCAO) focal stroke model; type: in vivo, spontaneously hypertensive rat; conditions: single bolus 2 hours after MCAO, infarct measured 24 hours after MCAO, vs vehicle-treated control
Excerpt: To determine the ability of these compounds to reduce cell loss resulting from neuronal ischemia, a standard rodent model of permanent focal ischemia, involving occlusion of the middle cerebral artery in the spontaneously hypertensive rat (MCAO model) was employed [Tamura, A., et al., Journal of Cerebral Blood Flow and Metabolism, Volume 1, 53-60, (1981)].
Selected compounds have been evaluated in the focal stroke model involving permanent middle cerebral artery occlusion (MCAO) in the spontaneously hypertensive rat. This procedure results in a reliably large neocortical infarct volume that is measured by means of vital dye exclusion in serial slices through the brain 24 hours after MCAO. In the present test, compounds were administered using an i.v. or […]. route of administration at two hours after occlusion.

Structure (SMILES) | BK Current, percent of control IBTX-sensitive current [1] | reduction of cortical infarct volume ([2]; intraparitoneally 10 mg/kg) | reduction of cortical infarct volume ([2]; intravenously 0.03 mg/kg)
COc1ccc(Cl)cc1C1(O)C(=O)Nc2cc(C(F)(F)F)ccc21 (racemic) [Example 1, (±)-3-(5-Chloro-2-methoxyphenyl)-1,3-dihydro-3-hydroxy-6-(trifluoromethyl)-2H-indol-2-one] | + (+ = 100-125%) | – | –
O=C1Nc2cc(C(F)(F)F)ccc2C1(O)c1cc(Cl)ccc1O (racemic) [Example 3, (±)-3-(5-Chloro-2-hydroxyphenyl)-1,3-dihydro-3-hydroxy-6-(trifluoromethyl)-2H-indol-2-one] | ++ (++ = 125-150%) | – | –
O=C1Nc2cc(C(F)(F)F)ccc2C1c1cc(Cl)ccc1O (racemic) [Example 4, (±)-3-(5-Chloro-2-hydroxyphenyl)-1,3-dihydro-6-(trifluoromethyl)-2H-indol-2-one] | +++ (+++ = >150%) | about 26% | about 18%
O=C1Nc2cc(Cl)cc(Cl)c2C1(O)c1cc(Cl)ccc1O (racemic) [Example 6, (±)-3-(5-Chloro-2-dhydroxyphenyl)-4,6-dichloro-1,3-dihydro-3-hydroxy-2-H-indol-2-one] | + (+ = 100-125%) | – | –
O=C1Nc2c(C(F)(F)F)cccc2C1(O)c1cc(Cl)ccc1O (racemic) [Example 7, (±)-3-(5-Chloro-2-hydroxyphenyl)-1,3-dihydro-3-hydroxy-7-(trifluoromethyl)-2H-indol-2-one] | + (+ = 100-125%) | – | –
O=C1Nc2cc(C(F)(F)F)ccc2C1(O)c1cc(C(F)(F)F)ccc1O (racemic) [Example 9, (±)-1,3-Dihydro-3-hydroxy-3-[2-hydroxy-5-(trifluoromethyl)phenyl]-6-(trifluoromethyl)-2H-indol-2-one] | ++ (++ = 125-150%) | – | –
COc1ccc(Cl)cc1C1(F)C(=O)Nc2cc(C(F)(F)F)ccc21 (racemic) [Example 14, (±)-3-(5-Chloro-2-methoxyphenyl)-1,3-dihydro-3-fluoro-6-(trifluoromethyl)-2H-indol-2-one] | ++ (++ = 125-150%) | – | –
O=C1Nc2c(ccc3ccccc23)C1(O)c1cc(Cl)ccc1O (racemic) [Example 15, (±)-3-(5-Chloro-2-hydroxyphenyl)-1,3-dihydro-3-hydroxy-2H-benz[g]indol-2-one] | +++ (+++ = >150%) | – | –
O=C1Nc2cc(-c3ccccc3)ccc2C1c1cc(Cl)ccc1O (racemic) [Example 16, (±)-3-(5-Chloro-2-hydroxyphenyl)-1,3-dihydro-6-phenyl-2H-indol-2-one] | +++ (+++ = >150%) | – | –
O=C1Nc2ccc3ccccc3c2C1c1cc(Cl)ccc1O (racemic) [Example 22, (±)-3-(5--Chloro-2-hydroxyphenyl)-1,3-dihydro-2H-benz[e]indol-2-one] | +++ (+++ = >150%) | – | –
COc1ccc(Cl)cc1C1(F)C(=O)Nc2ccc(F)cc21 (racemic) [Example 25, (±)-3-(5-Chloro-2-methoxyphenyl)-1,3-dihydro-3,5-difluoro-2H-indol-2-one] | + (+ = 100-125%) | – | –
O=C1Nc2cc(Cl)cc(Cl)c2C1c1cc(Cl)ccc1O (racemic) [Example 31, (±)-3-(5-Chloro-2-hydroxyphenyl)-4,6-dichloro-1,3-dihydro-2H-indol-2-one] | + (+ = 100-125%) | – | –
O=C1Nc2cc(I)ccc2C1c1cc(Cl)ccc1O (racemic) [Example 33, (±)-3-(5-Chloro-2-hydroxyphenyl)-1,3-dihydro-6-iodo-2H-indol-2-one] | +++ (+++ = >150%) | – | –
O=C1Nc2cc(C(F)(F)F)ccc2C1(O)c1cc(Cl)ccc1O (single isomer, unassigned; (-)) [Example 13, (-)-3-(5-Chloro-2-hydroxyphenyl)-1,3-dihydro-3-hydroxy-6-(trifluoromethyl)-2H-indol-2-one] | ++ (++ = 125-150%) | – | –

— patent publication US5565483A, “3-substituted oxindole derivatives as potassium channel modulators” (Bristol-Myers Squibb Company, priority 1995, dated 1996)
